From patent US9617244B2, “Antibacterial quinoline derivatives” (JANSSEN PHARMACEUTICA NV, priority 2012, dated 2017)
≈ marks a conversion by molar mass, not a printed value.

Each compound was assayed on Staphylococcus aureus (ATCC29213) (assay: In-vitro anti-bacterial activity, microtitre plate assay, IC90 determination (non-mycobacterial strains)). Conditions: 90% inhibitory concentration for bacterial growth, 24 hours, resazurin fluorescence.
Assay type: cell-based
Experimental: D.2. In-Vitro Method for Testing Compounds for Anti-Bacterial Activity Against Various Non-Mycobacterial Strains
Preparation of Bacterial Suspensions for Susceptibility Testing:
The bacteria used in this study were grown overnight in flasks containing 100 ml Mueller-Hinton Broth (Becton Dickinson—cat. no. 275730) in sterile de-ionized water, with shaking, at 37° C. Stocks (0.5 ml/tube) were stored at −70° C. until use. Bacteria titrations were performed in microtiter plates to detect the TCID50, in which TCID50 represents the dilution that gives rise to bacterial growth in 50% of inoculated cultures. In general, an inoculum level of approximately 100 TCID50 was used for susceptibility testing.
Anti Bacterial Susceptibility Testing: IC90 Determination
Flat-bottom, sterile 96-well plastic microtiter plates were filled with 180 μl of sterile deionized water, supplemented with 0.25% BSA. Subsequently, stock solutions (7.8× final test concentration) of compounds were added in 45 μl volumes in column 2 Serial five-fold dilutions (45 μl in 180 μl) were made directly in the microtiter plates from column 2 to reach column 11. Untreated control samples with (column 1) and without (column 12) inoculum were included in each microtiter plate. Depending on the bacteria type, approximately 10 to 60 CFU per well of bacteria inoculum (100 TCID50), in a volume of 100 μl in 2.8× Mueller-Hinton broth medium, was added to the rows A to H, except column 12. The same volume of broth medium without inoculum was added to column 12 in row A to H. The cultures were incubated at 37° C. for 24 hours under a normal atmosphere (incubator with open air valve and continuous ventilation). At the end of incubation, one day after inoculation, the bacterial growth was quantitated fluorometrically. Therefore resazurin (0.6 mg/ml) was added in a volume of 20 μl to all wells 3 hours after inoculation, and the plates were re-incubated overnight. A change in colour from blue to pink indicated the growth of bacteria. The fluorescence was read in a computer-controlled fluorometer (Cytofluor Biosearch) at an excitation wavelength of 530 nm and an emission wavelength of 590 nm. The % growth inhibition achieved by the compounds was calculated according to standard methods. The IC90 (expressed in μg/ml) was defined as the 90% inhibitory concentration for bacterial growth.

Row | SMILES | IC90 STA B29213
1 | CS(=O)(=O)c1ccc2[nH]c(=O)c(C(c3ccc(Cl)cc3)C3(O)CCNC(Cc4ccc(F)c(F)c4)C3)cc2c1 (centres unmarked) [Compound 212] | 7.60 µg/mL (≈ 13.3 µM)
2 | CS(=O)(=O)c1ccc2[nH]c(=O)c(C(c3ccc(Cl)cc3)C3(O)CCNC(Cc4ccc(F)c(F)c4)C3)cc2c1 (centres unmarked) [Compound 213] | >17.31 µg/mL
3 | CS(=O)(=O)c1ccc2[nH]c(=O)c(C(c3ccc(Cl)cc3)C3(O)CCNC(Cc4ccc(F)c(F)c4)C3)cc2c1 (centres unmarked) [Compound 214] | >17.57 µg/mL
4 | CS(=O)(=O)c1ccc2[nH]c(=O)c(C(c3ccc(Cl)cc3)C3(O)CCNC(Cc4ccc(F)c(F)c4)C3)cc2c1 (centres unmarked) [Compound 215] | 13.66 µg/mL (≈ 23.8 µM)
5 | Cc1cc(F)ccc1C1CC(O)(C(c2ccc(Cl)cc2)c2cc3cc(S(C)(=O)=O)ccc3[nH]c2=O)CCN1 (centres unmarked) [Compound 220] | >14.80 µg/mL
6 | Cc1cc(F)ccc1C1CC(O)(C(c2ccc(Cl)cc2)c2cc3cc(S(C)(=O)=O)ccc3[nH]c2=O)CCN1 (centres unmarked) [Compound 221] | 3.73 µg/mL (≈ 6.72 µM)
7 | Cc1cc(F)ccc1C1CC(O)(C(c2ccc(Cl)cc2)c2cc3cc(S(C)(=O)=O)ccc3[nH]c2=O)CCN1 (centres unmarked) [Compound 222] | >14.78 µg/mL
8 | Cc1cc(F)ccc1C1CC(O)(C(c2ccc(Cl)cc2)c2cc3cc(S(C)(=O)=O)ccc3[nH]c2=O)CCN1 (centres unmarked) [Compound 223] | >14.83 µg/mL
9 | Cc1cc(F)ccc1C1CC(O)(C(c2ccc(Cl)cc2)c2cc3cc(S(C)(=O)=O)ccc3[nH]c2=O)CCN1 (centres unmarked) [Compound 224] | 3.73 µg/mL (≈ 6.72 µM)
10 | Cc1cc(F)ccc1C1CC(O)(C(c2ccc(Cl)cc2)c2cc3cc(S(C)(=O)=O)ccc3[nH]c2=O)CCN1 (centres unmarked) [Compound 225] | >14.77 µg/mL
11 | O=c1[nH]c2ccc(Br)cc2cc1C(c1ccc(Cl)cc1)C1(O)CCNCC1Cc1cccc(F)c1 (centres unmarked) [Compound 229] | 1.86 µg/mL (≈ 3.35 µM)
12 | CSc1ccc2[nH]c(=O)c(C(c3ccc(Cl)cc3)C3(O)CCNC(c4ccccc4)C3)cc2c1 (centres unmarked) [Compound 230] | 1.67 µg/mL (≈ 3.4 µM)
13 | CSc1ccc2[nH]c(=O)c(C(c3ccc(Cl)cc3)C3(O)CCNC(c4ccccc4)C3)cc2c1 (centres unmarked) [Compound 231] | 3.30 µg/mL (≈ 6.72 µM)
14 | CSc1ccc2[nH]c(=O)c(C(c3ccc(Cl)cc3)C3(O)CCNC(c4ccccc4)C3)cc2c1 (centres unmarked) [Compound 232] | 6.65 µg/mL (≈ 13.5 µM)
15 | CSc1ccc2[nH]c(=O)c(C(c3ccc(Cl)cc3)C3(O)CCNC(c4ccccc4)C3)cc2c1 (centres unmarked) [Compound 233] | 1.67 µg/mL (≈ 3.4 µM)
16 | CSc1ccc2[nH]c(=O)c(C(c3ccc(Cl)cc3)C3(O)CCNC(c4ccccc4)C3)cc2c1 (centres unmarked) [Compound 234] | 5.24 µg/mL (≈ 10.7 µM)
17 | CSc1ccc2[nH]c(=O)c(C(c3ccc(Cl)cc3)C3(O)CCNC(c4ccccc4)C3)cc2c1 (centres unmarked) [Compound 235] | 4.17 µg/mL (≈ 8.49 µM)

Same assay, conditions: Staphylococcus aureus, ATCC29213, 24 h, 90% inhibitory concentration for bacterial growth, resazurin fluorescence, read-out: IC90 STA B29213

Row | SMILES | IC90
18 | CSc1ccc2nc(O)c(C(c3ccccc3)C3(O)CCNC(c4ccc(F)cc4C)C3)cc2c1 (centres unmarked) [Compound 182] | 6.6 µg/mL (≈ 13.5 µM)
19 | Cc1cc(F)ccc1C1CC(O)(C(c2ccccc2)c2cc3cc(-c4cccnc4)ccc3[nH]c2=O)CCN1 (centres unmarked) [Compound 236] | 10.3 µg/mL (≈ 19.7 µM)

The compounds below were run on Mycobacterium smegmatis (ATCC607) (assay: In-vitro anti-bacterial activity against strain M. Smegmatis ATCC607). Conditions: 90% inhibitory concentration for bacterial growth, 48 hours, Alamar Blue fluorescence.
Assay type: cell-based
Experimental: D.1. In-Vitro Method for Testing Compounds for Anti-Bacterial Activity Against Strain M. Smegmatis ATCC607
Flat-bottom, sterile 96-well plastic microtiter plates were filled with 180 μl of sterile deionized water, supplemented with 0.25% BSA. Subsequently, stock solutions (7.8× final test concentration) of compounds were added in 45 μl volumes to a series of duplicate wells in column 2 so as to allow evaluation of their effects on bacterial growth. Serial five-fold dilutions (45 μl in 180 μl) were made directly in the microtiter plates from column 2 to 11 using a customised robot system (Zymark Corp., Hopkinton, Mass.). Pipette tips were changed after every 3 dilutions to minimize pipetting errors with high hydrophobic compounds. Untreated control samples with (column 1) and without (column 12) inoculum were included in each microtiter plate. Approximately 250 CFU per well of bacteria inoculum, in a volume of 100 μl in 2.8× Mueller-Hinton broth medium, was added to the rows A to H, except column 12. The same volume of broth medium without inoculum was added to column 12 in row A to H. The cultures were incubated at 37° C. for 48 hours in a humidified 5% CO2 atmosphere (incubator with open air valve and continuous ventilation). At the end of incubation, two days after inoculation, the bacterial growth was quantitated fluorometrically. Therefore Alamar Blue (10×) was added to all wells in a volume of 20 μl and plates were incubated for another 2 hours at […]
The fluorescence was read in a computer-controlled fluorometer (Cytofluor, Biosearch) at an excitation wavelength of 530 nm and an emission wavelength of 590 nm (gain 30). The percentage growth inhibition achieved by the compounds was calculated according to standard methods and expressed as IC90 (μg/ml) which defines the 90% inhibitory concentration for bacterial growth.

Row | SMILES | IC90 MSM 607
20 | CS(=O)(=O)c1ccc2[nH]c(=O)c(C(c3ccc(Cl)cc3)C3(O)CCNC(Cc4ccc(F)c(F)c4)C3)cc2c1 (centres unmarked) [Compound 212] | 6.04 µg/mL (≈ 10.5 µM)
21 | CS(=O)(=O)c1ccc2[nH]c(=O)c(C(c3ccc(Cl)cc3)C3(O)CCNC(Cc4ccc(F)c(F)c4)C3)cc2c1 (centres unmarked) [Compound 213] | >17.31 µg/mL
22 | CS(=O)(=O)c1ccc2[nH]c(=O)c(C(c3ccc(Cl)cc3)C3(O)CCNC(Cc4ccc(F)c(F)c4)C3)cc2c1 (centres unmarked) [Compound 214] | >17.57 µg/mL
23 | CS(=O)(=O)c1ccc2[nH]c(=O)c(C(c3ccc(Cl)cc3)C3(O)CCNC(Cc4ccc(F)c(F)c4)C3)cc2c1 (centres unmarked) [Compound 215] | 17.19 µg/mL (≈ 30 µM)
24 | Cc1cc(F)ccc1C1CC(O)(C(c2ccc(Cl)cc2)c2cc3cc(S(C)(=O)=O)ccc3[nH]c2=O)CCN1 (centres unmarked) [Compound 220] | >14.80 µg/mL
25 | Cc1cc(F)ccc1C1CC(O)(C(c2ccc(Cl)cc2)c2cc3cc(S(C)(=O)=O)ccc3[nH]c2=O)CCN1 (centres unmarked) [Compound 221] | 2.96 µg/mL (≈ 5.33 µM)
26 | Cc1cc(F)ccc1C1CC(O)(C(c2ccc(Cl)cc2)c2cc3cc(S(C)(=O)=O)ccc3[nH]c2=O)CCN1 (centres unmarked) [Compound 222] | >14.78 µg/mL
27 | Cc1cc(F)ccc1C1CC(O)(C(c2ccc(Cl)cc2)c2cc3cc(S(C)(=O)=O)ccc3[nH]c2=O)CCN1 (centres unmarked) [Compound 223] | >14.83 µg/mL
28 | Cc1cc(F)ccc1C1CC(O)(C(c2ccc(Cl)cc2)c2cc3cc(S(C)(=O)=O)ccc3[nH]c2=O)CCN1 (centres unmarked) [Compound 224] | 5.92 µg/mL (≈ 10.7 µM)
29 | Cc1cc(F)ccc1C1CC(O)(C(c2ccc(Cl)cc2)c2cc3cc(S(C)(=O)=O)ccc3[nH]c2=O)CCN1 (centres unmarked) [Compound 225] | >14.77 µg/mL
30 | O=c1[nH]c2ccc(Br)cc2cc1C(c1ccc(Cl)cc1)C1(O)CCNCC1Cc1cccc(F)c1 (centres unmarked) [Compound 229] | 3.31 µg/mL (≈ 5.95 µM)
31 | CSc1ccc2[nH]c(=O)c(C(c3ccc(Cl)cc3)C3(O)CCNC(c4ccccc4)C3)cc2c1 (centres unmarked) [Compound 230] | 1.18 µg/mL (≈ 2.4 µM)
32 | CSc1ccc2[nH]c(=O)c(C(c3ccc(Cl)cc3)C3(O)CCNC(c4ccccc4)C3)cc2c1 (centres unmarked) [Compound 231] | 2.62 µg/mL (≈ 5.34 µM)
33 | CSc1ccc2[nH]c(=O)c(C(c3ccc(Cl)cc3)C3(O)CCNC(c4ccccc4)C3)cc2c1 (centres unmarked) [Compound 232] | 5.93 µg/mL (≈ 12.1 µM)
34 | CSc1ccc2[nH]c(=O)c(C(c3ccc(Cl)cc3)C3(O)CCNC(c4ccccc4)C3)cc2c1 (centres unmarked) [Compound 233] | 1.32 µg/mL (≈ 2.69 µM)
35 | CSc1ccc2[nH]c(=O)c(C(c3ccc(Cl)cc3)C3(O)CCNC(c4ccccc4)C3)cc2c1 (centres unmarked) [Compound 234] | 3.71 µg/mL (≈ 7.56 µM)
36 | CSc1ccc2[nH]c(=O)c(C(c3ccc(Cl)cc3)C3(O)CCNC(c4ccccc4)C3)cc2c1 (centres unmarked) [Compound 235] | 6.60 µg/mL (≈ 13.4 µM)

Same assay, conditions: Mycolicibacterium smegmatis, ATCC607, 48 h, 90% inhibitory concentration for bacterial growth, Alamar Blue fluorescence, read-out: IC90 MSM 607

Row | SMILES | IC90
37 | CSc1ccc2nc(O)c(C(c3ccccc3)C3(O)CCNC(c4ccc(F)cc4C)C3)cc2c1 (centres unmarked) [Compound 182] | 6.6 µg/mL (≈ 13.5 µM)
38 | Cc1cc(F)ccc1C1CC(O)(C(c2ccccc2)c2cc3cc(-c4cccnc4)ccc3[nH]c2=O)CCN1 (centres unmarked) [Compound 236] | 7.26 µg/mL (≈ 14 µM)
